Counter-ions that a name gives are not always drawn.
biological target: T1, glycine transporter-1 (GlyT-1) (Homo sapiens, UniProt P48067); assay: [14C]glycine uptake assay in JAR cells endogenously expressing GlyT-1 (scintillation proximity); type: cell-based; settings: JAR cells, [14C]glycine 5 μM, 3 hour incubation; read-out: GlyT-1 IC50
T1 construct: JAR cells (ATCC#HTB-144), which endogenously express GlyT-1; host or cells: JAR human choriocarcinoma cells
T1 sequence (P48067 1-706): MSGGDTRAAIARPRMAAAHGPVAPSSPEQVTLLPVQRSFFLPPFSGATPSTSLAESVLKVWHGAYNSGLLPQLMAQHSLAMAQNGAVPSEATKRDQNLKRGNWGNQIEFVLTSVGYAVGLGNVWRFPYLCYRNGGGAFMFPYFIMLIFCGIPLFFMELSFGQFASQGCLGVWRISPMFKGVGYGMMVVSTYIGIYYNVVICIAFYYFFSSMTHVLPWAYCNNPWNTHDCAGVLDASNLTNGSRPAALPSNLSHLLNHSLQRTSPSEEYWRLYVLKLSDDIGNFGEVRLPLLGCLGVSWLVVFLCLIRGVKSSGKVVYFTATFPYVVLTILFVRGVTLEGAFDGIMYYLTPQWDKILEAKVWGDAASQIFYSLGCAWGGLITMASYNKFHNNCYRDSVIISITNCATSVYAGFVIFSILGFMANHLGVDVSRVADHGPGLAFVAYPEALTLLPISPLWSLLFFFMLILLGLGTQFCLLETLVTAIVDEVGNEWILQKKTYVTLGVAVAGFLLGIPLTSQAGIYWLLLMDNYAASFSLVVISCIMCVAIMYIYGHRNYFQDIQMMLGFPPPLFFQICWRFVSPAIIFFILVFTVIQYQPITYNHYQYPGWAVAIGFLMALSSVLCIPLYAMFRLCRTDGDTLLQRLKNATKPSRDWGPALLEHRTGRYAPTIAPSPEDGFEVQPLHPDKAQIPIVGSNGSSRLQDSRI
How it was run: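 Human choriocarcinoma JAR cells (endogenous GlyT-1) attached overnight, then pre-incubated 10 min at room temperature with compound in pH 7.4 Hepes uptake buffer containing 5 mM alanine and 0.75% DMSO. Uptake of 5 μM [14C]glycine over 3 h at 37 °C read by scintillation proximity; IC50 from four-parameter fit of nine-point curves.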

Q: How did the IC50 turn out when `CCCS(=O)(=O)N1CCN(C2(CNC(=O)c3ccccc3OC(F)F)CCC(F)(F)CC2)CC1` [compound 142, N-((4,4-Difluoro-1-(4-(propylsulfonyl)piperazin-1-yl)cyclohexyl)methyl)-2-(difluoromethoxy) benzamide Hydrochloride] was run?
A: The IC50 was 158 nM.

Q: How did the IC50 turn out when `Cc1cc(F)ccc1C(=O)NCC1(N2CCN(S(=O)(=O)c3cn(C)cn3)CC2)CCC(F)(F)CC1` [compound 184, N-((4,4-Difluoro-1-(4-(1-methyl-1H-imidazol-4-ylsulfonyl)piperazin-1-yl)cyclohexyl)methyl)-4-fluoro-2-methylbenzamide Hydrochloride] was run?
A: Its IC50 is 13 nM.

Q: Which IC50 does the source give for `CC1CN(S(=O)(=O)c2cn(C)nn2)C(C)CN1C1(CNC(=O)c2ccc(C(F)(F)F)cc2C(F)(F)F)CCC(F)(F)CC1` (centres unmarked) [compound 237, N-((1-(2,5-Dimethyl-4-(1-methyl-1H-1,2,3-triazol-4-ylsulfonyl)piperazin-1-yl)-4,4-difluorocyclohexyl)methyl)-2,4-bis(trifluoromethyl) benzamide Hydrochloride] here?
A: Its IC50 is 2 nM.

Q: How did the IC50 turn out when `CCCS(=O)(=O)N1CCN(C2(CNC(=O)c3ccccc3F)CCC(F)(F)CC2)CC1` [compound 131, N-((4,4-Difluoro-1-(4-(propylsulfonyl)piperazin-1-yl)cyclohexyl)methyl)-2-fluorobenzamide Hydrochloride] was run?
A: The IC50 was 291 nM.

Q: For `Cc1cccc(C)c1C(=O)NCC1(N2CCN(S(=O)(=O)c3cn(C)cn3)CC2)CCC(F)(F)CC1` [compound 164, N-((4,4-Difluoro-1-(4-(1-methyl-1H-imidazol-4-ylsulfonyl)piperazin-1-yl)cyclohexyl)methyl)-2,6-dimethylbenzamide Hydrochloride], which IC50 is on record?
A: Its IC50 is 4 nM.

Q: `CCS(=O)(=O)N1CCN(C2(CNC(=O)c3c(C)cc(C)cc3C)CCC(F)(F)CC2)CC1` [compound 217, N-((1-(4-(Ethylsulfonyl)piperazin-1-yl)-4,4-difluorocyclohexyl)methyl)-2,4,6-trimethylbenzamide Hydrochloride] was tested. Which IC50 did it give?
A: The IC50 was 216 nM.

Q: For `CCCS(=O)(=O)N1CCN(C2(CNC(=O)c3ccc(Cl)cc3F)CCC(F)(F)CC2)CC1` [compound 143, 4-Chloro-N-((4,4-difluoro-l-(4-(propylsulfonyl)piperazin-1-yl)cyclohexyl)methyl)-2-fluorobenzamide Hydrochloride], which IC50 is on record?
A: The IC50 was 137 nM.

Q: With `CCC(F)(F)S(=O)(=O)N1CCN(C2(CNC(=O)c3ccc(C(F)(F)F)cc3Cl)CCC(F)(F)CC2)CC1` [compound 251, 2-Chloro-N-((1-(4-(1,1-difluoropropylsulfonyl)piperazin-1-yl)-4,4-difluorocyclohexyl)methyl)-4-(trifluoromethyl) benzamide Hydrochloride] as the compound, how does the IC50 read?
A: The IC50 was 987 nM.

Q: How did the IC50 turn out when `CCCS(=O)(=O)N1CCN(C2(CNC(=O)c3c(Cl)cccc3OC)CCC(F)(F)CC2)CC1` [compound 152, 2-Chloro-N-((4,4-difluoro-1-(4-(propylsulfonyl)piperazin-1-yl)cyclohexyl)methyl)-6-methoxybenzamide Hydrochloride] was run?
A: Its IC50 is 34 nM.

Q: With `Cc1cc(Cl)ccc1C(=O)NCC1(N2CCN(S(=O)(=O)c3cn(C)cn3)CC2)CCC(F)(F)CC1` [compound 168, 4-Chloro-N-((4,4-difluoro-1-(4-(1-methyl-1H-imidazol-4-ylsulfonyl)piperazin-1-yl)cyclohexyl)methyl)-2-methylbenzamide Hydrochloride] as the compound, how does the IC50 read?
A: The IC50 was 15 nM.

Q: With `CCS(=O)(=O)N1CCN(C2(CNC(=O)c3ccc(C(F)(F)F)cc3C(F)(F)F)CCC(F)(F)CC2)C(C)C1` (racemic) [compound 218, (±)-N-((1-(4-(Ethylsulfonyl)-2-methylpiperazin-1-yl)-4,4-difluorocyclohexyl)methyl)-2,4-bis(trifluoromethyl) benzamide Hydrochloride] as the compound, how does the IC50 read?
A: The IC50 was 86 nM.

Q: `Cn1cnc(S(=O)(=O)N2CCN(C3(CNC(=O)c4ccc(Cl)cc4Cl)CCC(F)(F)CC3)CC2)c1` [compound 178, 2,4-Dichloro-N-((4,4-difluoro-1-(4-(1-methyl-1H-imidazol-4-ylsulfonyl)piperazin-1-yl)cyclohexyl)methyl) benzamide Hydrochloride] was tested. Which IC50 did it give?
A: Its IC50 is 5 nM.

Q: Which IC50 does the source give for `CCCS(=O)(=O)N1CCN(C2(CNC(=O)c3ccccc3-c3ccccc3)CCCCC2)CC1` [compound 34, N-((1-(4-(Propylsulfonyl)piperazin-1-yl)cyclohexyl)methyl) biphenyl-2-carboxamide Hydrochloride] here?
A: The IC50 was 646 nM.

Q: For `CCCS(=O)(=O)N1CCN(C2(CNC(=O)c3c(Cl)ccc(C(F)(F)F)c3Cl)CCC(F)(F)CC2)CC1` [compound 265, 2,6-Dichloro-N-((4,4-difluoro-1-(4-(propylsulfonyl)piperazin-1-yl)cyclohexyl)methyl)-3-(trifluoromethyl) benzamide Hydrochloride], which IC50 is on record?
A: Its IC50 is 228 nM.

Q: Which IC50 does the source give for `CCS(=O)(=O)N1CCN(C2(CNC(=O)c3cc(F)c(Cl)cc3Cl)CCC(F)(F)CC2)CC1` [compound 212, 2,4-Dichloro-N-((1-(4-(ethylsulfonyl)piperazin-1-yl)-4,4-difluorocyclohexyl)methyl)-5-fluorobenzamide Hydrochloride] here?
A: The IC50 was 209 nM.

Q: Which IC50 does the source give for `CCCS(=O)(=O)N1CCN(C2(CNC(=O)c3ccccc3C)CCC(F)(F)CC2)CC1` [compound 134, N-((4,4-Difluoro-1-(4-(propylsulfonyl)piperazin-1-yl)cyclohexyl)methyl)-2-methylbenzamide Hydrochloride] here?
A: Its IC50 is 70 nM.

Q: For `Cn1cnc(S(=O)(=O)N2CCN(C3(CNC(=O)c4c(F)cccc4OC(F)F)CCC(F)(F)CC3)CC2)c1` [compound 188, N-((4,4-Difluoro-1-(4-(1-methyl-1H-imidazol-4-ylsulfonyl)piperazin-1-yl)cyclohexyl)methyl)-2-(difluoromethoxy)-6-fluorobenzamide Hydrochloride], which IC50 is on record?
A: Its IC50 is 1 nM.

Q: How did the IC50 turn out when `Cn1cc(S(=O)(=O)N2CCN(C3(CNC(=O)c4ccc(F)cc4F)CCC(F)(F)CC3)CC2)nn1` [compound 229, N-((4,4-Difluoro-1-(4-(1-methyl-1H-1,2,3-triazol-4-ylsulfonyl)piperazin-1-yl)cyclohexyl)methyl)-2,4-difluorobenzamide Hydrochloride] was run?
A: The IC50 was 10 nM.

Q: How did the IC50 turn out when `CCCS(=O)(=O)N1CCN(C2(CNC(=O)c3c(F)cccc3OC(F)(F)F)CCC(F)(F)CC2)CC1` [compound 158, N-((4,4-Difluoro-1-(4-(propylsulfonyl)piperazin-1-yl)cyclohexyl)methyl)-2-fluoro-6-(trifluoro-methoxy)benzamide Hydrochloride] was run?
A: Its IC50 is 35 nM.

Q: `CCCS(=O)(=O)N1CCN(C2(CNC(=O)c3c(F)cccc3Cl)CCC(F)(F)CC2)CC1` [compound 156, 2-Chloro-N-((4,4-difluoro-1-(4-(propylsulfonyl)piperazin-1-yl)cyclohexyl)methyl)-6-fluorobenzamide Hydrochloride] was tested. Which IC50 did it give?
A: The IC50 was 43 nM.

Q: How did the IC50 turn out when `CCCS(=O)(=O)N1CCN(C2(CNC(=O)c3ccc(F)cc3C)CCCCC2)CC1` [compound 10, 4-Fluoro-2-methyl-N-((1-(4-(propylsulfonyl)piperazin-1-yl)cyclohexyl)methyl) benzamide Hydrochloride] was run?
A: The IC50 was 28 nM.

Q: With `CC(=O)CS(=O)(=O)N1CCN(C2(CNC(=O)c3ccc(C(F)(F)F)cc3Cl)CCC(F)(F)CC2)CC1` [compound 280, 2-Chloro-N-((4,4-difluoro-1-(4-(2-oxopropylsulfonyl)piper-azin-1-yl)cyclohexyl)methyl)-4-(trifluoromethyl) benzamide Hydrochloride] as the compound, how does the IC50 read?
A: Its IC50 is 61 nM.

Q: With `Cn1cnc(S(=O)(=O)N2CCN(C3(CNC(=O)c4c(F)cccc4Cl)CCC(F)(F)CC3)CC2)c1` [compound 180, 2-Chloro-N-((4,4-difluoro-1-(4-(1-methyl-1H-imidazol-4-ylsulfonyl)piperazin-1-yl)cyclohexyl)methyl)-6-fluorobenzamide Hydrochloride] as the compound, how does the IC50 read?
A: The IC50 was 8 nM.

Q: How did the IC50 turn out when `CCS(=O)(=O)N1CCN(C2(CNC(=O)c3ccc(C(C)(F)F)cc3Cl)CCC(F)(F)CC2)CC1` [compound 205, 2-Chloro-4-(1,1-difluoroethyl)-N-((1-(4-(ethylsulfonyl)piperazin-1-yl)-4,4-difluorocyclohexyl)methyl) benzamide Hydrochloride] was run?
A: The IC50 was 187 nM.

Q: How did the IC50 turn out when `Cn1cnc(S(=O)(=O)N2CCN(C3(CNC(=O)c4c(F)cccc4OC(F)(F)F)CCC(F)(F)CC3)CC2)c1` [compound 186, N-((4,4-Difluoro-1-(4-(1-methyl-1H-imidazol-4-ylsulfonyl)piperazin-1-yl)cyclohexyl)methyl)-2-fluoro-6-(trifluoromethoxy) benzamide Hydrochloride] was run?
A: Its IC50 is 1 nM.

Q: How did the IC50 turn out when `Cc1cccc(Cl)c1C(=O)NCC1(N2CCN(S(=O)(=O)c3cn(C)cn3)CC2)CCC(F)(F)CC1` [compound 181, 2-Chloro-N-((4,4-difluoro-1-(4-(1-methyl-1H-imidazol-4-ylsulfonyl)piperazin-1-yl)cyclohexyl)methyl)-6-methylbenzamide Hydrochloride] was run?
A: Its IC50 is 2 nM.
